Experiments:
Assay type in all cases: in vivo
[1] = tested on: Alopecurus myosuroides (ALOMY); assay: Pre-emergence biological efficacy, glasshouse pot test; details: 312 h, pre-emergence, 1,000 g/ha, evaluated after 13 days (100=total damage; 0=no damage), read-out: Percentage damage ALOMY
Outline: (§1)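 Test compound, formulated in acetone/water (50:50) containing 0.5% Tween 20 and diluted into an aqueous spray, was applied at 1000 or 250 g/ha to pots sown one day earlier. Injury was rated after 13 days, 100 meaning total damage.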

Setaria faberi (SETFA) [2] = assay: as above; details: 312 h, pre-emergence, 1,000 g/ha, evaluated after 13 days (100=total damage; 0=no damage), read-out: Percentage damage SETFA
Outline: as §1

Solanum nigrum (SOLNI) [3] = assay: as above; details: 312 h, pre-emergence, 1,000 g/ha, evaluated after 13 days (100=total damage; 0=no damage), read-out: Percentage damage SOLNI
Outline: as §1

[4] = tested on: Amaranthus retoflexus (AMARE); assay: as above; details: Amaranthus retroflexus, 312 h; pre-emergence, 1,000 g/ha, evaluated after 13 days (100=total damage; 0=no damage); read-out: Percentage damage AMARE
Outline: as §1

[5] = tested on: Echinochloa crus-galli (ECHCG); assay: as above; details: 312 h, pre-emergence, 1,000 g/ha, evaluated after 13 days (100=total damage; 0=no damage), read-out: Percentage damage ECHCG
Outline: as §1

[6] = tested on: Ipomea hederaceae (IPOHE); assay: as above; details: Ipomoea hederacea, 312 h; pre-emergence, 1,000 g/ha, evaluated after 13 days (100=total damage; 0=no damage); read-out: Percentage damage IPOHE
Outline: as §1

[7] = tested on: Alopecurus myosuroides (ALOMY); assay: Post-emergence biological efficacy, glasshouse pot test; details: 312 h, post-emergence, 1,000 g/ha, evaluated after 13 days (100=total damage; 0=no damage), read-out: Percentage damage caused to weed species, ALOMY
Outline: (§2)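 Plants were sown in standard soil and grown 8 days in a glasshouse (24/16° C. day/night, 14 hours light, 65% humidity), then sprayed post-emergence at 1000 or 250 g/ha from acetone/water (50:50) with 0.5% Tween 20. Damage was scored visually after 13 days (0 = none, 100 = total).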

Setaria faberi (SETFA) [8] = assay: as above; details: 312 h, post-emergence, 1,000 g/ha, evaluated after 13 days (100=total damage; 0=no damage), read-out: Percentage damage caused to weed species, SETFA
Outline: as §2

Solanum nigrum (SOLNI) [9] = assay: as above; details: 312 h, post-emergence, 1,000 g/ha, evaluated after 13 days (100=total damage; 0=no damage), read-out: Percentage damage caused to weed species, SOLNI
Outline: as §2

[10] = tested on: Amaranthus retoflexus (AMARE); assay: as above; details: Amaranthus retroflexus, 312 h; post-emergence, 1,000 g/ha, evaluated after 13 days (100=total damage; 0=no damage); read-out: Percentage damage caused to weed species, AMARE
Outline: as §2

[11] = tested on: Echinochloa crus-galli (ECHCG); assay: as above; details: 312 h, post-emergence, 1,000 g/ha, evaluated after 13 days (100=total damage; 0=no damage), read-out: Percentage damage caused to weed species, ECHCG
Outline: as §2

[12] = tested on: Ipomea hederaceae (IPOHE); assay: as above; details: Ipomoea hederacea, 312 h; post-emergence, 1,000 g/ha, evaluated after 13 days (100=total damage; 0=no damage); read-out: Percentage damage caused to weed species, IPOHE
Outline: as §2

Structure (SMILES) | pest or weed control at 1000 g/ha [1] [%] | pest or weed control at 1000 g/ha (Setaria faberi (SETFA) [2]) [%] | pest or weed control at 1000 g/ha (Solanum nigrum (SOLNI) [3]) [%] | pest or weed control at 1000 g/ha [4] [%] | pest or weed control at 1000 g/ha [5] [%] | pest or weed control at 1000 g/ha [6] [%] | pest or weed control at 1000 g/ha [7] [%] | pest or weed control at 1000 g/ha (Setaria faberi (SETFA) [8]) [%] | pest or weed control at 1000 g/ha (Solanum nigrum (SOLNI) [9]) [%] | pest or weed control at 1000 g/ha [10] [%] | pest or weed control at 1000 g/ha [11] [%] | pest or weed control at 1000 g/ha [12] [%]
COC(=O)c1nc(C2CC2)nc(NC(C)C(O)c2ccc(O)cc2)c1Cl (stereo not drawn) [Compound 4-271, 5-Chloro-2-cyclopropyl-4-[2-hydroxy-2-(4-hydroxyphenyl)-1-methyl-ethylamino]-6-methoxycarbonyl-pyrimidine] | 20 | 30 | 90 | 100 | 20 | 100 | 30 | 80 | 90 | 100 | 70 | 100
COC(=O)c1nc(C2CC2)nc(NC(CO)Cc2ccc(Cl)cc2)c1Cl (stereo not drawn) [Compound 4-274, 5-Chloro-4-[2-(4-chlorophenyl)-1-hydroxymethyl-ethylamino]-2-cyclopropyl-6-methoxycarbonyl-pyrimidine] | 40 | 40 | 80 | 60 | 30 | 80 | 30 | 30 | 80 | 100 | 20 | 50
COC(=O)c1nc(C2CC2)nc(NC(c2ccccc2)c2ccccc2)c1Cl [Compound 4-277, 5-Chloro-2-cyclopropyl-4-(diphenylmethyl-amino)-6-methoxy-carbonylpyrimidine] | 0 | 0 | 0 | 0 | 0 | 40 | 30 | 50 | 50 | 90 | 50 | 70
COC(=O)c1nc(C2CC2)nc(NC(c2ccccc2)c2ccc(Cl)cc2)c1Cl (stereo not drawn) [Compound 4-278, 5-Chloro-4-[(4-chlorophenyl)-(phenyl)-methylamino]-2-cyclopropyl-6-methoxycarbonyl-pyrimidine] | 0 | 10 | 10 | 40 | 10 | 20 | 10 | 40 | 30 | 90 | 20 | 60
COC(=O)c1nc(C2CC2)nc(NC(Cc2ccccc2)c2ccccc2)c1Cl (stereo not drawn) [Compound 4-279, 5-Chloro-2-cyclopropyl-4-(1,2-diphenylethyl-amino)-6-methoxy-carbonylpyrimidine] | 10 | 0 | 70 | 20 | 0 | 60 | 10 | 40 | 70 | 90 | 0 | 60
COC(=O)c1nc(C2CC2)nc(NC(Cc2ccccc2)C(=O)OC)c1Cl (stereo not drawn) [Compound 4-283, 5-Chloro-2-cyclopropyl-6-methoxycarbonyl-4-(1-methoxy-carbonyl-2-phenylethylamino)-pyrimidine] | 40 | 80 | 100 | 100 | 70 | 100 | 20 | 60 | 80 | 100 | 60 | 70

Source: patent publication US20110086759A1, “CHEMICAL COMPOUNDS” (SYNGENTA CROP PROTECTION, INC., priority 2007, published 2011)
